± gives the standard deviation of the averaged measurements.
What was measured:
Settings in all cases: 72 h
Calu-3 [1] = test: drug sensitivity score (DSS) for viability; higher = more toxic; extreme values may be limits of the assay
Caco-2 [2] = test: as above
HepG2 [3] = test: as above
U2OS [4] = test: as above
Vero E6 [5] = test: as above
Calu-3 [6] = test: cell viability relative to DMSO; higher = less toxic
Caco-2 [7] = test: as above
HepG2 [8] = test: as above
U2OS [9] = test: as above
Vero E6 [10] = test: as above
Calu-3 [11] = test: relative viability EC50 (midpoint between 100% and the lowest measured viability); higher = less toxic
Caco-2 [12] = test: as above
HepG2 [13] = test: as above
U2OS [14] = test: as above
Vero E6 [15] = test: as above

Structure (SMILES)	drug sensitivity score (Calu-3 [1])	drug sensitivity score (Caco-2 [2])	drug sensitivity score (HepG2 [3])	drug sensitivity score (U2OS [4])	drug sensitivity score (Vero E6 [5])	cell viability (Calu-3 [6]; 1 nM)	cell viability (Calu-3 [6]; 10 nM)	cell viability (Calu-3 [6]; 100 nM)	cell viability (Calu-3 [6]; 1000 nM)	cell viability (Calu-3 [6]; 10000 nM)	cell viability (Caco-2 [7]; 1 nM)	cell viability (Caco-2 [7]; 10 nM)	cell viability (Caco-2 [7]; 100 nM)	cell viability (Caco-2 [7]; 1000 nM)	cell viability (Caco-2 [7]; 10000 nM)	cell viability (HepG2 [8]; 1 nM)	cell viability (HepG2 [8]; 10 nM)	cell viability (HepG2 [8]; 100 nM)	cell viability (HepG2 [8]; 1000 nM)	cell viability (HepG2 [8]; 10000 nM)	cell viability (U2OS [9]; 1 nM)	cell viability (U2OS [9]; 10 nM)	cell viability (U2OS [9]; 100 nM)	cell viability (U2OS [9]; 1000 nM)	cell viability (U2OS [9]; 10000 nM)	cell viability (Vero E6 [10]; 1 nM)	cell viability (Vero E6 [10]; 10 nM)	cell viability (Vero E6 [10]; 100 nM)	cell viability (Vero E6 [10]; 1000 nM)	cell viability (Vero E6 [10]; 10000 nM)	relative viability EC50 (Calu-3 [11])	relative viability EC50 (Caco-2 [12])	relative viability EC50 (HepG2 [13])	relative viability EC50 (U2OS [14])	relative viability EC50 (Vero E6 [15])
CC(=O)N(OCc1ccccc1)[C@@H]1c2cc(C#N)ccc2OC(C)(C)[C@H]1O	0	0	0	0	0	103%	96.9%	98%	103%	106%	97.8%	100%	99%	96.5%	103%	95.1%	103%	96.2%	109%	109%	97.5%	96.1%	105%	94.5%	94.8%	95.3%	97.7%	94.2%	99.9%	109%	> 10 µM	> 10 µM	> 10 µM	> 10 µM	> 10 µM
CC(C)(Cc1c[nH]c2ccc(Cl)cc12)NCCOc1ccccc1OCC1CC1	5.9	5.1	7.3	5.8	4.3	91.4%	98.1%	103%	97.4%	0.9%	104%	108%	88.6%	103%	3.5%	98.1%	98.7%	99.3%	89.3%	-0.3%	102%	102%	102%	97.3%	1.5%	93.9%	98%	93.4%	99.4%	24.4%	2.98 µM	3.33 µM	2.28 µM	2.97 µM	3.11 µM
CC(C)c1cccc2c(-c3ccccc3)cc(-c3ccc(-c4ccc(C(=O)O)cc4)[nH]3)nc12	0	1.5	0	0	1.4	103%	96.2%	99.2%	117%	103%	89.3%	102%	96.5%	91.7%	76.1%	94.8%	87.1%	100%	98.8%	87.6%	97.5%	101%	98.9%	103%	96.9%	95.6%	94%	86.7%	83.9%	91.3%	> 10 µM	> 10 µM	> 10 µM	> 10 µM	> 10 µM
CCN(CCNC(=O)Nc1ccccc1Br)c1cccc(C)c1	0	0	0	0	0	93.6%	96.3%	93.7%	91.3%	101%	92.4%	102%	93.1%	102%	90.5%	95.1%	101%	90.8%	99.6%	96.5%	98.9%	103%	97%	99.5%	93.5%	108%	114%	105%	120%	97.8%	> 10 µM	> 10 µM	> 10 µM	> 10 µM	> 10 µM
CCc1ccccc1OC[C@@H](O)CN[C@H]1CCCc2ccccc21	1.4	0.3	0	0	0	104%	98.5%	99.7%	91.1%	80.8%	102%	98.9%	100%	95.6%	87.6%	95.6%	103%	99.1%	99.9%	89.5%	96.6%	92.2%	98.2%	95.5%	87%	94.7%	97.2%	89.5%	95.3%	106%	> 10 µM	> 10 µM	> 10 µM	> 10 µM	> 10 µM
COc1ccc(OC)c2c(=S)c3ccccc3[nH]c12	0	0	1	0	0	105%	100%	99.4%	108%	106%	112%	96.7%	99.5%	102%	88.6%	88.8%	96.3%	94%	98.9%	76.6%	102%	98.3%	102%	99.7%	103%	99.4%	104%	102%	97.2%	96.2%	> 10 µM	> 10 µM	> 10 µM	> 10 µM	> 10 µM
Cc1cc(Cn2cnc3c2C[C@@H](C(=O)O)N(C(=O)C(c2ccccc2)c2ccccc2)C3)ccc1N(C)C	0	0	0	0	0	87.3%	106%	103%	98.1%	114%	91.4%	97.9%	94.1%	108%	110%	101%	90.7%	105%	99.9%	110%	93.3%	102%	96%	103%	107%	96.5%	90.4%	99.3%	96.5%	103%	> 10 µM	> 10 µM	> 10 µM	> 10 µM	> 10 µM
Cc1nc(Nc2n[nH]c3c2CN(C(=O)N[C@H](CN(C)C)c2ccccc2)C3(C)C)c2sccc2n1	10.1	9.5	24.9	19	7.4	92.2%	89.9%	82%	61.7%	25.2%	98.9%	97.9%	70.6%	68.8%	45.9%	89%	72.6%	38.4%	26.6%	10.3%	100%	88.6%	54.5%	35%	0.8%	97.9%	99.9%	93.7%	64.4%	46.6%	0.571 µM	0.203 µM	0.0349 µM	0.192 µM	0.552 µM
Clc1ccc(N2CCN(Cc3c[nH]c4ncccc34)CC2)cc1	0	0.1	1.1	0	0	88.6%	99.1%	101%	92.9%	87.9%	103%	98.1%	95.5%	93.5%	87%	102%	93.8%	97.1%	93.6%	79.8%	96.1%	98.2%	95.9%	102%	92.2%	94.9%	102%	97.4%	96.2%	102%	> 10 µM	> 10 µM	> 10 µM	> 10 µM	> 10 µM
Cn1cc(C(=O)OCC2CCN(CCNS(C)(=O)=O)CC2)c2ccccc21	0	0	0	0	0	86%	109%	100%	103%	108%	99%	95.8%	85.9%	93.3%	96.8%	96.1%	96.3%	93.9%	93.3%	91.3%	99.7%	101%	96.8%	98.8%	95.3%	101%	96.8%	100%	95.1%	96.5%	> 10 µM	> 10 µM	> 10 µM	> 10 µM	> 10 µM
Nc1n[nH]c2nnc(-c3c(-c4ccccc4)nn4ccccc34)cc12	0	0.2	0	0	0.2	98.9%	102%	99.8%	90%	95%	95.7%	107%	90.4%	97.1%	84.3%	102%	95.2%	103%	97.9%	91.8%	98.2%	102%	94.9%	102%	89.1%	105%	93.6%	97%	94.8%	84.5%	> 10 µM	> 10 µM	> 10 µM	> 10 µM	> 10 µM
O=C(O)COc1cccc(-c2ocnc2-c2nc(-c3ccccc3)c(-c3ccccc3)o2)c1	0	0.7	0	0	0	92.9%	95.8%	95%	100%	105%	109%	101%	95.5%	94.4%	81.8%	105%	102%	93.6%	95%	105%	102%	97.7%	97.5%	102%	101%	99%	104%	102%	104%	101%	> 10 µM	> 10 µM	> 10 µM	> 10 µM	> 10 µM
O=c1cc(N2CCNCC2)oc2c(-c3ccccc3)cccc12	0	0	0	0	0	109%	98.4%	108%	106%	117%	93.3%	88.9%	89.2%	93.9%	106%	105%	100%	98.2%	101%	102%	96.6%	100%	96.8%	102%	101%	100%	96.4%	104%	93.1%	103%	> 10 µM	> 10 µM	> 10 µM	> 10 µM	> 10 µM
C[C@@H](C1=C(CCN(C)C)Cc2ccccc21)c1ccccn1 (racemic) [dimetindene]	0	0	0	0	0	98.2 ± 2%	113 ± 4%	103.2 ± 0.21%	105 ± 3.2%	96 ± 2%	93.1 ± 6.5%	98.2 ± 4.7%	96.3 ± 4.6%	102 ± 10%	104.8 ± 0.92%	104 ± 4.7%	98 ± 4.8%	106 ± 5.9%	89.7 ± 3.2%	103 ± 2.5%	99.5 ± 0.57%	104 ± 1.8%	99.3 ± 7.8%	100 ± 1.4%	94.8 ± 2.6%	97.2 ± 8%	98.2 ± 1.2%	100.2 ± 0.78%	100%	96.5 ± 8%	> 10 µM	> 10 µM	> 10 µM	> 10 µM	> 10 µM
